One block for each molecule: values may come before it.
Experiments:
[1] = Recovery of 7-deoxy doxorubicin-aglycone following intraperitoneal epirubicin at 4 mg.Kg-1 dose in mouse; format: ADME, organism-based, CD-1, Plasma; settings: in vivo, ip
[2] = Recovery of 7-deoxy doxorubicin-aglycone following intravenous epirubicin at 4 mg.Kg-1 dose in rat; format: ADME, organism-based, SD, Plasma; settings: in vivo
[3] = Recovery of 7-deoxy doxorubicin-aglycone following intraperitoneal epirubicin at 4 mg.Kg-1 dose in hamster; format: ADME, organism-based, Cricetulus griseus, Plasma; settings: chinese hamster, in vivo, ip
[4] = Recovery of 7-deoxy doxorubicin-aglycone following intravenous epirubicin at 4 mg.Kg-1 dose in rabbit; format: ADME, organism-based, Oryctolagus cuniculus, New Zealand White, Plasma; settings: in vivo
[5] = Recovery of 7-deoxy doxorubicin-aglycone following intravenous epirubicin at 1.5 mg.Kg-1 dose in man; format: ADME, organism-based, Plasma; settings: human, in vivo
[6] = Detection of 7-deoxy epirubicin-aglycone in plasma following single intravenous epirubicin at 10 mg.Kg-1 dose in female mouse bearing colon tumor; format: ADME, organism-based, BALB/c; settings: in vivo
[7] = Detection of 7-deoxy doxorubicin-aglycone in plasma following single intravenous doxorubicin at 10 mg.Kg-1 dose in female mouse bearing colon tumor; format: ADME, organism-based, BALB/c; design: dose 10 mg.Kg-1, dosed compound id 2.46809e+06, dosed compound name Doxorubicin, gender F, regimen Single, route intravenous, sampling time 48 h; settings: in vivo
[8] = Detection of 7-deoxy epirubicin-aglycone in heart following single intravenous epirubicin at 10 mg.Kg-1 dose in female mouse bearing colon tumor; format: ADME, organism-based, BALB/c; settings: in vivo
[9] = Detection of 7-deoxy doxorubicin-aglycone in heart following single intravenous doxorubicin at 10 mg.Kg-1 dose in female mouse bearing colon tumor; format: ADME, organism-based, BALB/c; design: dose 10 mg.Kg-1, dosed compound id 2.46809e+06, dosed compound name Doxorubicin, gender F, regimen Single, route intravenous, sampling time 48 h; settings: in vivo
[10] = Detection of 7-deoxy epirubicin-aglycone in tumor following single intravenous epirubicin at 10 mg.Kg-1 dose in female mouse bearing colon tumor; format: ADME, organism-based, BALB/c, Neoplasm; settings: in vivo
[11] = Detection of 7-deoxy doxorubicin-aglycone in tumor following single intravenous doxorubicin at 10 mg.Kg-1 dose in female mouse bearing colon tumor; format: ADME, organism-based, BALB/c, Neoplasm; design: dose 10 mg.Kg-1, dosed compound id 2.46809e+06, dosed compound name Doxorubicin, gender F, regimen Single, route intravenous, sampling time 48 h; settings: in vivo
[12] = AUC values (0-48 h) of 7-deoxydoxorubicin aglycone in plasma following single intravenous doxorubicin at 10 mg.Kg-1 dose in female mouse bearing colon tumor; format: ADME, organism-based, BALB/c; design: time < 48 hr, dose 10 mg.Kg-1, dosed compound id 2.46809e+06, dosed compound name Doxorubicin, gender F, regimen Single, route intravenous, sampling time 48 h; settings: in vivo
[13] = AUC values (0-48 h) of 7-deoxydoxorubicin aglycone in heart following single intravenous doxorubicin at 10 mg.Kg-1 dose in female mouse bearing colon tumor; format: ADME, organism-based, BALB/c; design: time < 48 hr, dose 10 mg.Kg-1, dosed compound id 2.46809e+06, dosed compound name Doxorubicin, gender F, regimen Single, route intravenous, sampling time 48 h; settings: in vivo
[14] = AUC values (0-48 h) of 7-deoxydoxorubicin aglycone in tumor following single intravenous doxorubicin at 10 mg.Kg-1 dose in female mouse bearing colon tumor; format: ADME, organism-based, BALB/c, Neoplasm; design: time < 48 hr, dose 10 mg.Kg-1, dosed compound id 2.46809e+06, dosed compound name Doxorubicin, gender F, regimen Single, route intravenous, sampling time 48 h; settings: in vivo
[15] = AUC values (0-48 h) of 7-deoxydoxorubicin aglycone in plasma following single intravenous epirubicin at 10 mg.Kg-1 dose in female mouse bearing colon tumor; format: ADME, organism-based, BALB/c; settings: in vivo
[16] = AUC values (0-48 h) of 7-deoxydoxorubicin aglycone in heart following single intravenous epirubicin at 10 mg.Kg-1 dose in female mouse bearing colon tumor; format: ADME, organism-based, BALB/c; settings: in vivo
[17] = AUC values (0-48 h) of 7-deoxydoxorubicin aglycone in tumor following single intravenous epirubicin at 10 mg.Kg-1 dose in female mouse bearing colon tumor; format: ADME, organism-based, BALB/c, Neoplasm; settings: in vivo
[18] = Terminal half-life of doxorubicinol following intravenous doxorubicinol at 1.27 mg.Kg-1 dose in dog; format: ADME, organism-based, Canis lupus familiaris, Beagle, Plasma; design: dose 1.27 mg.Kg-1, dosed compound id 2.4681e+06, dosed compound name Doxorubicinol, route intravenous; settings: in vivo
[19] = Recovery of doxorubicinol following intraperitoneal epirubicin at 4 mg.Kg-1 dose in mouse; format: ADME, organism-based, CD-1, Plasma; settings: in vivo, ip
[20] = Recovery of doxorubicinol following intravenous epirubicin at 4 mg.Kg-1 dose in rat; format: ADME, organism-based, SD, Plasma; settings: in vivo
[21] = Recovery of doxorubicinol following intraperitoneal epirubicin at 4 mg.Kg-1 dose in hamster; format: ADME, organism-based, Cricetulus griseus, Plasma; settings: chinese hamster, in vivo, ip
[22] = Recovery of doxorubicinol following intravenous epirubicin at 4 mg.Kg-1 dose in rabbit; format: ADME, organism-based, Oryctolagus cuniculus, New Zealand White, Plasma; settings: in vivo
[23] = Recovery of doxorubicinol following intravenous epirubicin at 1.5 mg.Kg-1 dose in man; format: ADME, organism-based, Plasma; settings: human, in vivo
[24] = Detection of doxorubicinol in plasma following single intravenous doxorubicin at 10 mg.Kg-1 dose in female mouse bearing colon tumor; format: ADME, organism-based, BALB/c; design: dose 10 mg.Kg-1, dosed compound id 2.46809e+06, dosed compound name Doxorubicin, gender F, regimen Single, route intravenous, sampling time 48 h; settings: in vivo
[25] = Detection of doxorubicinol in heart following single intravenous doxorubicin at 10 mg.Kg-1 dose in female mouse bearing colon tumor; format: ADME, organism-based, BALB/c; design: dose 10 mg.Kg-1, dosed compound id 2.46809e+06, dosed compound name Doxorubicin, gender F, regimen Single, route intravenous, sampling time 48 h; settings: in vivo
[26] = Detection of doxorubicinol in tumor following single intravenous doxorubicin at 10 mg.Kg-1 dose in female mouse bearing colon tumor; format: ADME, organism-based, BALB/c, Neoplasm; design: dose 10 mg.Kg-1, dosed compound id 2.46809e+06, dosed compound name Doxorubicin, gender F, regimen Single, route intravenous, sampling time 48 h; settings: in vivo
[27] = AUC values (0-48 h) of doxorubicinol in plasma following single intravenous doxorubicin at 10 mg.Kg-1 dose in female mouse bearing colon tumor; format: ADME, organism-based, BALB/c; design: time < 48 hr, dose 10 mg.Kg-1, dosed compound id 2.46809e+06, dosed compound name Doxorubicin, gender F, regimen Single, route intravenous, sampling time 48 h; settings: in vivo
[28] = AUC values (0-48 h) of doxorubicinol in heart following single intravenous doxorubicin at 10 mg.Kg-1 dose in female mouse bearing colon tumor; format: ADME, organism-based, BALB/c; design: time < 48 hr, dose 10 mg.Kg-1, dosed compound id 2.46809e+06, dosed compound name Doxorubicin, gender F, regimen Single, route intravenous, sampling time 48 h; settings: in vivo
[29] = AUC values (0-48 h) of doxorubicinol in tumor following single intravenous doxorubicin at 10 mg.Kg-1 dose in female mouse bearing colon tumor; format: ADME, organism-based, BALB/c, Neoplasm; design: time < 48 hr, dose 10 mg.Kg-1, dosed compound id 2.46809e+06, dosed compound name Doxorubicin, gender F, regimen Single, route intravenous, sampling time 48 h; settings: in vivo
[30] = (§1) Urinary elimination of adriamycinol following intravenous bolus adriamycin at 10 mg.Kg-1 dose in rat; format: ADME, organism-based, SD, Urine; design: dose 10 mg.Kg-1, dosed compound id 2.46809e+06, dosed compound name Doxorubicin, route intravenous, sampling time 0-6 h; settings: in vivo
[31] = as §1; format: ADME, organism-based, SD, Urine; design: dose 10 mg.Kg-1, dosed compound id 2.46809e+06, dosed compound name Doxorubicin, route intravenous, sampling time 0-24 h; settings: in vivo
[32] = as §1; format: ADME, organism-based, SD, Urine; design: dose 10 mg.Kg-1, dosed compound id 2.46809e+06, dosed compound name Doxorubicin, route intravenous, sampling time 0-60 h; settings: in vivo

Compound recovery [1]: 0 10^-9M
Compound recovery [2]: 0 10^-9M
Compound recovery [3]: 1.3 10^-9M
Compound recovery [4]: 0 10^-9M
Compound recovery [5]: 14 10^-9M
Compound recovery [6]: OUTCOME = Observed
Compound recovery [7]: OUTCOME = Observed
Compound recovery [8]: OUTCOME = Observed
Compound recovery [9]: OUTCOME = Observed
Compound recovery [10]: OUTCOME = Observed
Compound recovery [11]: OUTCOME = Observed
AUC [12]: 4.1 nmol·min/mL
AUC [13]: 152 nmol·min/g
AUC [14]: 135 nmol·min/g
AUC [15]: 1.6 nmol·min/mL
AUC [16]: 49 nmol·min/g
AUC [17]: 11 nmol·min/g
SMILES: COc1cccc2c1C(=O)c1c(O)c3c(c(O)c1C2=O)C[C@@](O)(C(=O)CO)CC3

t1/2 [18]: VALUE = Shorter than doxorubicin
Compound recovery [19]: 0 10^-9M
Compound recovery [20]: 0.6 10^-9M
Compound recovery [21]: 0.1 10^-9M
Compound recovery [22]: 0.3 10^-9M
Compound recovery [23]: 1 10^-9M
Compound recovery [24]: OUTCOME = Observed
Compound recovery [25]: OUTCOME = Observed
Compound recovery [26]: OUTCOME = Not detected/not observed
AUC [27]: 1.7 nmol·min/mL
AUC [28]: 228 nmol·min/g
AUC [29]: 0 nmol·min/g
Compound recovery [30]: 0.22%
Compound recovery [31]: 0.26%
Compound recovery [32]: 0.3%
SMILES: COc1cccc2c1C(=O)c1c(O)c3c(c(O)c1C2=O)C[C@@](O)(C(O)CO)C[C@@H]3O[C@H]1C[C@H](N)[C@H](O)[C@H](C)O1 (some centres not stated)

From ChEMBL document CHEMBL3508140 (2016)
